According to EP4711356A1, “TETRAHYDROCARBAZOLE DERIVATIVE, PHARMACEUTICAL COMPOSITION, AND USE THEREOF” (Nain Biotech (Hangzhou) Co., Ltd., priority 2023, dated 2024):

Tested on: HeLa cells
Experiment: Cell-based pharmacodynamic assay (CellTiter-Glo proliferation inhibition), HeLa
Details: human cervical cancer HeLa cells; 72 hours incubation; CellTiter-Glo luminescence; read-out: IC50 against HeLa cells
Experimental: Complete media such as RPMI 1640 (Gibco, A1049101), EMEM (ATCC, 30-2003), DMEM (Gibco, C11995500CP), McCoy's 5A (Gibco, 16600082), and F-12K (ATCC, 30-2004) were prepared by supplementing with varying concentrations of FBS (Biological Industries, 04-002-1A) and 1% Penicillin-Streptomycin (Gibco, 15140122) and was thoroughly mixed. Tumor cell lines including HeLa (ATCC, CCL-2; EMEM + 10% FBS), TOV-21G (Cobioer, CBP60292; 1:1 mixture of MCDB 105 and Medium 199 + 15% FBS), OVCAR-3 (ATCC, HTB-161; RPMI 1640 + 20% FBS + 0.01 mg/ml bovine insulin), SK-OV-3 (ATCC, HTB-77; McCoy's 5A + 10% FBS), A2780 (Cobioer, CBP60283; RPMI 1640 + 10% FBS), OC316 (Cobioer, CBP60620; RPMI 1640 + 10% FBS), HuH-7 (Cobioer, CBP60202; DMEM + 10% FBS), SNU-398 (ATCC, CRL-2233; RPMI 1640 + 10% FBS), NCI-H2286 (ATCC, CRL-5938; RPMI 1640 + 5% FBS), NCI-H82 (ATCC, HTB-175; RPMI 1640 + 10% FBS), A549 (ATCC, CCL-185; F-12K + 10% FBS), SK-MEL-3 (ATCC, HTB-69; McCoy's 5A + 15% FBS), PSN-1 (Cobioer, CBP61215; RPMI 1640 + 10% FBS), LoVo (ATCC, CCL-229; F-12K + 10% FBS), DLD-1 (ATCC, CCL-221; RPMI 1640 + 10% FBS), HCT-15 (ATCC, CCL-225; RPMI 1640 + 10% FBS), A498 (ATCC, HTB-44; EMEM + 10% FBS), LNCaP (ATCC, CRL-1740; RPMI 1640 + 10% FBS), SNU-1 (ATCC, CRL-5971; RPMI 1640 + 10% FBS), SCC-9 (Cobioer, CBP60428; DMEM/F12 (1:1) + 10% FBS + 0.5 mM sodium pyruvate + 400 ng/ml hydrocortisone), SU-DHL-5 (ATCC, CRL-2958; RPMI 1640 + 10% FBS), Toledo (ATCC, CRL-2631; RPMI 1640 + 10% FBS), and SJCRH30 (ATCC, CRL-2061; RPMI 1640 + 10% FBS) were thawed. Cells were passaged approximately twice, and those in good growth condition (typically passages 4-6) were selected for experiments. The medium was aspirated, and the cells were washed once with 0.25% trypsin (Invitrogen, 25200-072). The waste liquid was discarded, and 3 mL of fresh trypsin was added to the culture flask for digestion. When the cells began to detach, 9 mL of complete medium was added to neutralize the trypsin digestion, and the mixture was gently mixed. The cell suspension was transferred to a centrifuge tube using a pipette and centrifuged at 1000 rpm for 5 minutes. The supernatant was discarded, and 5 mL of medium was added to the centrifuge tube to gently resuspend the cells evenly. The cell concentration was adjusted to 1×10^4/mL-3×10^4/mL using a cell counter (Beckman Coulter, Vi-cellTM XR). The cell suspension was added to a 96-well plate (Corning, 3903) at 100 µL/well. The plate was labeled with details such as cell name, seeding density, and date, and then placed in a CO2 incubator (Thermo, Thermo 3111) overnight. Test compounds were prepared as 20 mM stock solutions in DMSO (Sigma, D4540-1L) and added to the corresponding cell wells using an HPD300 automated dispenser according to the designed layout. The plates were incubated in a 37°C, 5% CO2 incubator for 72 hours. CellTiter-Glo Buffer was thawed at room temperature. The lyophilized CellTiter-Glo substrate was equilibrated to room temperature. The CellTiter-Glo Buffer was added to the CellTiter-Glo substrate and thoroughly mixed. The cell plates were removed and equilibrated to room temperature, and 50 µL of the mixed CellTiter-Glo reagent was added to each well. The plates were protected from light and shaken for 10 minutes, followed by incubation for 10 minutes. The plates were placed in an Enspire reader (luminescence measurement time: 0.5 s) to record luminescence results. The inhibition rate was calculated using the following formula: Inhibition rate (%) = (1 - (RLU_compound - RLU_blank) / (RLU_DMSO - RLU_blank)) × 100%. Dose-response curves were plotted using XLFit to calculate IC50 values. A four-parameter model was used: [fit = (A + ((B - A) / (1 + ((C/x) ^ D)))]. The test results for HeLa cells are shown in Table 1. Table 1: IC50 values of some test compounds against human cervical cancer HeLa cells

Row | SMILES | IC50
1 | C#Cc1cccc2[nH]c3c(c12)CCCC3=O [Compound B68] | ≤ 200 nM
2 | Cc1noc(-c2cccc3[nH]c4c(c23)CCCC4=O)n1 [Compound B69] | ≤ 200 nM
3 | Cc1nnc(-c2cccc3[nH]c4c(c23)CCCC4=O)o1 [Compound B70] | ≤ 200 nM
4 | Cc1nsc(-c2cccc3[nH]c4c(c23)CCCC4=O)n1 [Compound B71] | ≤ 200 nM
5 | CS(=O)(=O)c1cccc2[nH]c3c(c12)CCCC3=O [Compound B74] | ≤ 200 nM
6 | NS(=O)(=O)c1cccc2[nH]c3c(c12)CCCC3=O [Compound B75] | ≤ 500 nM
7 | CN(C)S(=O)(=O)c1cccc2[nH]c3c(c12)CCCC3=O [Compound B76] | ≤ 200 nM
8 | CS(C)(=O)=Nc1cccc2[nH]c3c(c12)CCCC3=O [Compound B80] | ≤ 500 nM
9 | CC(=O)c1cccc2[nH]c3c(c12)CCCC3=O [Compound B82] | ≤ 200 nM
10 | COC(=O)c1cc(F)cc2[nH]c3c(c12)CCCC3=O [Compound B83] | ≤ 200 nM
11 | COC(=O)c1c(F)ccc2[nH]c3c(c12)CCCC3=O [Compound B85] | ≤ 200 nM
12 | COC(=O)c1c(C)ccc2[nH]c3c(c12)CCCC3=O [Compound B87] | ≤ 200 nM
13 | COC(=O)c1c(Cl)ccc2[nH]c3c(c12)CCCC3=O [Compound B89] | ≤ 200 nM
14 | COC(=O)c1c(OC)ccc2[nH]c3c(c12)CCCC3=O [Compound B91] | ≤ 200 nM
15 | COc1ccc(Cn2nnc(-c3cccc4[nH]c5c(c34)CCCC5=O)n2)cc1 [Compound B94] | ≤ 500 nM
16 | O=C1CCCc2c1[nH]c1cccc(C(=O)OC3CCC3)c21 [Compound B95] | ≤ 200 nM
17 | O=C1CCCc2c1[nH]c1cccc(-c3ccncc3)c21 [Compound B96] | ≤ 200 nM
18 | Cc1cc(-c2cccc3[nH]c4c(c23)CCCC4=O)ccn1 [Compound B97] | ≤ 500 nM
19 | Cc1nc(-c2cccc3[nH]c4c(c23)CCCC4=O)no1 [Compound B99] | ≤ 200 nM
20 | CC(O)c1cccc2[nH]c3c(c12)CCCC3=O (centres unmarked) [Compound B105] | ≤ 500 nM
21 | CCOC(=O)c1cccc2[nH]c3c(c12)SCCC3=O [Compound B107] | ≤ 200 nM

Row | SMILES | IC50
22 | [2H]C([2H])([2H])C([2H])([2H])OC(=O)c1cccc2[nH]c3c(c12)CCCC3=O [Compound B116] | ≤ 200 nM
23 | CCOC(=O)c1c(C)ccc2[nH]c3c(c12)CCCC3=O [Compound B117] | ≤ 200 nM
24 | CCOC(=O)c1c(Cl)ccc2[nH]c3c(c12)CCCC3=O [Compound B118] | ≤ 200 nM
25 | C#Cc1ccc(COC(=O)c2cccc3[nH]c4c(c23)CCCC4=O)s1 [Compound B120] | ≤ 200 nM
26 | C#CC1(C(=O)Oc2cccc3[nH]c4c(c23)CCCC4=O)CC1 [Compound B121] | ≤ 500 nM
27 | CCn1ncc(-c2cccc3[nH]c4c(c23)CCCC4=O)n1 [Compound B123] | ≤ 200 nM
28 | CC(C)n1ncc(-c2cccc3[nH]c4c(c23)CCCC4=O)n1 [Compound B124] | ≤ 200 nM
29 | CCC#Cc1cccc2[nH]c3c(c12)CCCC3=O [Compound B126] | ≤ 200 nM
30 | O=C1CCCc2c1[nH]c1cccc(C(=O)OC3CC(O)C3)c21 (centres unmarked) [Compound B129] | ≤ 200 nM
31 | O=C1CCCc2c1[nH]c1cccc(C(=O)OC3CCC(O)CC3)c21 (centres unmarked) [Compound B130] | ≤ 200 nM
32 | COc1ccc2[nH]c3c(c2c1-c1cnn(C)n1)CCCC3=O [Compound B134] | ≤ 200 nM
33 | O=C1CCCc2c1[nH]c1cccc(C(=O)OC3CC(F)C3)c21 (centres unmarked) [Compound B139] | ≤ 200 nM
34 | CC1(COC(=O)c2cccc3[nH]c4c(c23)CCCC4=O)COC1 [Compound B140] | ≤ 200 nM
35 | CC(O)CCC(C)OC(=O)c1cccc2[nH]c3c(c12)CCCC3=O (centres unmarked) [Compound B141] | ≤ 200 nM
36 | C[C@@H](O)COC(=O)c1cccc2[nH]c3c(c12)CCCC3=O [Compound B147] | ≤ 200 nM
37 | NC(=O)COC(=O)c1cccc2[nH]c3c(c12)CCCC3=O [Compound B148] | ≤ 200 nM
38 | O=C1CCCc2c1[nH]c1cccc(C(=O)OC(CO)CO)c21 [Compound B149] | ≤ 200 nM
39 | C[C@H](O)COC(=O)c1cccc2[nH]c3c(c12)CCCC3=O [Compound B150] | ≤ 200 nM
40 | C#Cc1ccc2[nH]c3c(c2c1C(=O)OCC)CCCC3=O [Compound B153] | ≤ 200 nM
41 | Cn1cc(-c2cccc3[nH]c4c(c23)CCCC4=O)cn1 [Compound B154] | ≤ 200 nM
42 | CCn1cc(-c2cccc3[nH]c4c(c23)CCCC4=O)cn1 [Compound B155] | ≤ 200 nM

Row | SMILES | IC50
43 | O=C1CCCc2c1[nH]c1cccc(-c3cnn(C(F)F)c3)c21 [Compound B156] | ≤ 200 nM
44 | O=C1CCCc2c1[nH]c1cccc(C(=O)Oc3cn[nH]c3)c21 [Compound B160] | ≤ 200 nM
45 | Cc1cc(COC(=O)c2cccc3[nH]c4c(c23)CCCC4=O)n[nH]1 [Compound B163] | ≤ 200 nM
46 | Cn1nc2ccccc2c1COC(=O)c1cccc2[nH]c3c(c12)CCCC3=O [Compound B164] | ≤ 200 nM
47 | O=C1CCCc2c1[nH]c1cccc(C(=O)Oc3cccc4[nH]ncc34)c21 [Compound B166] | ≤ 500 nM
48 | C=C=Cn1cc(-c2cccc3[nH]c4c(c23)CCCC4=O)cn1 [Compound B173] | ≤ 200 nM
49 | N#CC1(COC(=O)c2cccc3[nH]c4c(c23)CCCC4=O)CC1 [Compound B175] | ≤ 500 nM
50 | O=C1CCCc2c1[nH]c1cccc(C(=O)OC3CCC(O)C3)c21 (centres unmarked) [Compound B177] | ≤ 200 nM
51 | Cc1nn(C)cc1-c1cccc2[nH]c3c(c12)CCCC3=O [Compound B180] | ≤ 500 nM
52 | O=C1CCCc2c1[nH]c1cccc(-c3cnn(CCO)c3)c21 [Compound B181] | ≤ 200 nM
53 | O=C1CCCc2c1[nH]c1cccc(C(=O)OC3COCC3O)c21 (centres unmarked) [Compound B186] | ≤ 500 nM
54 | O=C1CCCc2c1[nH]c1cccc(C(=O)O[C@@H](CO)c3ccccc3)c21 [Compound B189] | ≤ 500 nM
55 | [2H]C([2H])([2H])n1cc(-c2cccc3[nH]c4c(c23)CCCC4=O)cn1 [Compound B191] | ≤ 200 nM
56 | O=C1CCCc2c1[nH]c1cccc(N3CC[C@@H](CO)C3)c21 [Compound B193] | ≤ 200 nM
57 | O=C1CCCc2c1[nH]c1cccc(N3CCO[C@H](CO)C3)c21 [Compound B194] | ≤ 200 nM
58 | O=C1CCCc2c1[nH]c1cccc(N3CC[C@H](CO)C3)c21 [Compound B196] | ≤ 200 nM
59 | COC(=O)c1cccc2c1c1c(n2C(C)=O)C(=O)CCC1 [Compound C01] | ≤ 200 nM
60 | C=CC(=O)n1c2c(c3c(C(=O)OCC)cccc31)CCCC2=O [Compound C03] | ≤ 200 nM
61 | CCOC(=O)c1cccc2c1c1c(n2C(=O)c2ccccc2)C(=O)CCC1 [Compound C04] | ≤ 200 nM
62 | CCOCC(=O)n1c2c(c3c(C(=O)OCC)cccc31)CCCC2=O [Compound C14] | ≤ 200 nM
